Test results: patent publication US5001234A, “Cyclic hydrocarbons with an aminoalkyl sidechain” (The Upjohn Company, priority 1989, dated 1991)
Where a name gives a salt, the structure may show the parent alone.

The molecules below were run on phospholipase A2 (assay: Phospholipase A2 inhibition by at least one of two tests: inhibition of rat neutrophil aggregation, inhibition of hog pancreas PLA2). Details: found in at least one of the assays (rat neutrophil aggregation, FMLP; hog pancreas PLA2).
Format: biochemical
Design: key: Compounds that have been found to have a phospholipase A2 inhibitory or antidiabetic effect as determined by at least one of the above assays are indicated in the Examples and Preparations which follow by the notation "PLA2" and/or "diabetes" respectively; Compounds that have been found to have a phospholipase A2 inhibitory or antidiabetic effect as determined by at least one of the above assays are indicated in the Examples and Preparations which follow by the notation "PLA2" and/or "diabetes" respectively
Experimental: Inhibition of Rat Neutrophil Aggregation
1. Method for Thioglycolate Broth Preparation
Weigh sufficient thioglycolate medium, USP grade, to prepare a 5% w/v solution in sterile water. Heat the solution for 10 minutes on a boiling water bath. Remove and allow the solution to cool to 20°-25°. Inject 10±0.5 ml intraperitoneally into Sprague-Dawley rats as described below.
2. Method for Rat Peritoneal Leukocyte Collection
Six (6) Sprague-Dawley, pathogen free, female rats (230-270 grams) are injected intraperitoneally with 10.0±0.5 ml thioglyco. late broth. 5% w/v […] prior to sacrifice. After sacrifice by cervical dislocation, leukocytes accumulated in the peritoneal cavity are collected by injecting 30 ml of sterile 0.9% w/v sodium chloride intraperitoneally and vigorously massaging the abdomen to assure uniform dispersion of the cells within the carcass. Use a pasteur pipet to remove approximately 20 ml of fluid with suspended cells from a small incision through the abodominal wall. Collect the cell suspension in plastic culture tubes.
3. Washing and Resuspension of Cells for Aggregation
Centrifuge the cell suspensions isolated above for 10 minutes at 1000 rpm (Sorvall RC.3, HG-4L rotor, 25° C.). Discard the supernatant. Resuspend the cells evenly in 0.9% NaCl to original volume, centrifuge a second time for 10 minutes at 1000 rpm. Discard the supernatant. […]

Row | Compound | phospholipase A2 inhibitory effect (notation "PLA2")
1 | C[C@]12CC[C@H]3[C@@H](CC[C@H]4C[C@@H](OCCCN)CC[C@@H]43)[C@@H]1CCC2=O [Preparation 8, N-(3β,5α)-3-(3-aminopropoxy)estran-17-one] | PLA2
2 | CN(C)CCCO[C@H]1CC[C@H]2[C@@H](CC[C@@H]3[C@@H]2CC[C@]2(C)C(NCCCN)CC[C@@H]32)C1 (stereo partly drawn) [Example 10, N-[(3β,5α)-3-[3-(dimethylamino)propoxy]estran.17-yl]-1,3-diaminopropane] | PLA2

What follows are molecules tested on KKA^y mice with spontaneous diabetes (assay: Blood glucose lowering in the KKA^y mouse). Details: compound 1 mg/gram of chow, nonfasting blood glucose on day 4 of treatment.
Format: in vivo
Design: key: Compounds that have been found to have a phospholipase A2 inhibitory or antidiabetic effect as determined by at least one of the above assays are indicated in the Examples and Preparations which follow by the notation "PLA2" and/or "diabetes" respectively; Compounds that have been found to have a phospholipase A2 inhibitory or antidiabetic effect as determined by at least one of the above assays are indicated in the Examples and Preparations which follow by the notation "PLA2" and/or "diabetes" respectively
Experimental: All KKA^y mice used for screening are produced and selected by methods previously outlined, T. Fujita et al., Diabetes, 32 804-10 (1983). Groups of 6 animals each are employed.
Pre-treatment nonfasting blood glucose (NFBG) samples are measured 5 days prior to the start of a screening run by previously described methodologies. These blood sugar values are used to place animals into groups with equal mean blood glucose concentrations and to eliminate any mice with a NFBG value <250 mg/dl. On day 0, compounds chosen to be run are incorporated into ground mouse chow (Purina 5015). Compounds are included at a rate of 1 mg/gram of chow. Generally, 300 g of drugs containing diet is prepared for each group. Mice receiving ground chow only are the negative control. Each screening run also uses ciglitazone (T. Fujita, et al., supra) as a positive control (0.5 to 1.0 mg/gram chow).
Initial body and food weights are taken on day 1. Food is placed in a crock which contains an adequate amount to last for the length of the study. In order to acclimate the mice from pelleted mouse chow to ground mouse chow, they are fed the ground chow for 9 days prior to use in the screen. On day 4 of treatment, a NFBG sample is again measured, as well as food and body weights. Food consumption measurements are used to determine an average mg/kg dose the mice received over the testing period, and to evaluate the compound's effect on food consumption.
3. Acceptance of a Screening Run and Determination of Activity
Acceptance and activity are determined by the following criteria:
This group must not show a significant change (p<0.05) from pre-to post-treatment. If there is a significant decrease in blood sugar the run is not valid.
This group must show a significant depression in blood sugar mean levels from pre- to post-treatment. A lack of activity in this group would also invalidate the run.
C. Negative Control vs. Positive Control
This contrast must be significant. It is a further assurance that both control groups performed as expected.
A compound's activity is based on several criteria:
(1) A significant decrease in blood sugar mean levels from pre- to post-treatment.
(2) Negative control vs. compound: This contrast allows one to determine if these groups are dissimilar, which is required for the compound to be considered active.

Row | Compound | antidiabetic effect (notation "diabetes")
3 | COc1ccc2c(c1)C[C@@H](C)[C@@H]1[C@@H]2CC[C@]2(C)[C@@H](NCc3cccc(C(F)(F)F)c3)CC[C@@H]12 [Example 4, 3-Methoxy-7α-methyl-17β-[((3-trifluoromethyl)phenylmethyl)amino-estra-1,3,5(10)-triene Fumarate Hydrate] | diabetes
4 | COc1cc2c(cc1C)[C@H]1CC[C@]3(C)[C@@H](NCCc4ccc(S(N)(=O)=O)cc4)CC[C@H]3[C@@H]1CC2 [Example 7] | diabetes
5 | COc1ccc2c(c1)CC[C@@H]1[C@@H]2CC[C@]2(C)[C@@H](NCc3cccs3)CC[C@@H]12 [Example 1, 3-Methoxy-17β-[(2-thienylmethyl)amino]-estra-1,3,5-(10)-triene] | diabetes
6 | C=CCOc1ccc2c(c1)CC[C@@H]1[C@@H]2CC[C@]2(C)[C@@H](NCc3cccc(C(F)(F)F)c3)CC[C@@H]12 [Example 2, 3-Allyloxy-17β-[((3-trifluoromethyl)phenylmethyl)-amino-estra-1,3,5(10)-triene Fumarate] | diabetes
7 | C[C@]12CC[C@@H]3c4ccc(OCCCO)cc4CC[C@H]3[C@@H]1CC[C@@H]2NCc1cccc(C(F)(F)F)c1 [Example 3] | diabetes
8 | CN(CCc1ccc(S(N)(=O)=O)cc1)[C@H]1CC[C@H]2[C@@H]3CC[C@H]4CCCC[C@]4(C)[C@H]3CC[C@]12C [Example 6] | diabetes
9 | C[C@]12CC=CC[C@@H]1CC[C@@H]1[C@@H]2CC[C@]2(C)[C@@H](NCCc3ccc(S(N)(=O)=O)cc3)CC[C@@H]12 [Example 8] | diabetes
10 | COc1ccc2c(c1)CC[C@@H]1[C@@H]2[C@@H](O)C[C@]2(C)[C@@H](NCc3cccc(C(F)(F)F)c3)CC[C@@H]12 [Example 5] | diabetes
